Experimental data reported in patent publication US11697646B2, “Triazole N-linked carbamoyl cyclohexyl acids as LPA antagonists” (BRISTOL-MYERS SQUIBB COMPANY, priority 2017, dated 2023).

Target: T1, human LPA1 (Homo sapiens, UniProt Q92633)
T1 construct: expressed in transfected cells; host or cells: Chinese hamster ovary (CHO) cells
Experiment: LPA1 functional antagonist assay (calcium flux)
Format: cell-based
Conditions: CHO cells overexpressing human LPA1; calcium flux induced by 10 nM LPA; read-out: hLPA1 IC50
Procedure: The effectiveness of compounds of the present invention as LPA1 inhibitors can be determined in an LPA1 functional antagonist assay as follows:
The cells were then equilibrated to room temperature for 30 minutes before the assay. […] IC50 values were determined by fitting data to a 4-parameter logistic equation (GraphPad Prism, San Diego Calif.).

T1 sequence (Q92633 whole entry): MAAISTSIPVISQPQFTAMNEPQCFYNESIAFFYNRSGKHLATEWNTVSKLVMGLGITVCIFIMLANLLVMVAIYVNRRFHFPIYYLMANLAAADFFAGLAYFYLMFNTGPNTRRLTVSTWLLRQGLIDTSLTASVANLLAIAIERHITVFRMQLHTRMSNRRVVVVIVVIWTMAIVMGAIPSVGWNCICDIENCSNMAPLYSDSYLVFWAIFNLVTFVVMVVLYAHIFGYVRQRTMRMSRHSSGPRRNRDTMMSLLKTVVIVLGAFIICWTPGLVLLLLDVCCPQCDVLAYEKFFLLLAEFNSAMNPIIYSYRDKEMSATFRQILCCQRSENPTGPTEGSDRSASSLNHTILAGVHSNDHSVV

Row | Compound | IC50 [nM]
1 | Cc1nc(-c2nnn(C)c2CCNC(=O)OCc2ccccc2)ccc1O[C@H]1CCC[C@H](C(=O)O)C1 [Example 106, (1S,3S)-3-((6-(5-(2-(((benzyloxy)carbonyl)amino)ethyl)-1-methyl-1H-1,2,3-triazol-4-yl)-2-methylpyridin-3-yl)oxy)cyclohexane-1-carboxylic acid] | 525
2 | CCCCOC(=O)NCCc1c(-c2ccc(O[C@H]3CCC[C@H](C(=O)O)C3)c(C)n2)nnn1C [Example 107, (1S,3S)-3-((6-(5-(2-((butoxy-carbonyl)amino)ethyl)-1-methyl-1H-1,2,3-triazol-4-yl)-2-methylpyridin-3-yl)oxy)cyclohexane-1-carboxylic acid] | 1460
3 | Cc1nc(-c2nnn(C)c2CNC(=O)N(C)CC2CCC2)ccc1O[C@H]1CCC[C@H](C(=O)O)C1 [Example 108, (1S,3S)-3-((6-(5-((3-(cyclobutylmethyl)-3-methylureido)methyl)-1-methyl-1H-1,2,3-triazol-4-yl)-2-methylpyridin-3-yl)oxy)cyclohexanecarboxylic acid] | 82
4 | Cc1nc(-c2nnn(C)c2CNC(=O)N(C)Cc2ccccc2)ccc1O[C@H]1CCC[C@H](C(=O)O)C1 [Example 109, (1S,3S)-3-((6-(5-((3-benzyl-3-methyl-ureido)methyl)-1-methyl-1H-1,2,3-triazol-4-yl)-2-methylpyridin-3-yl)oxy)cyclohexanecarboxylic acid] | 85
5 | CCCCCN(C)C(=O)NCc1c(-c2ccc(O[C@H]3CCC[C@H](C(=O)O)C3)c(C)n2)nnn1C [Example 111, (1S,3S)-3-((2-methyl-6-(1-methyl-5-((3-methyl-3-pentylureido)methyl)-1H-1,2,3-triazol-4-yl)pyridin-3-yl)oxy)cyclohexanecarboxylic acid] | 226
6 | Cc1nc(-c2nnn(C)c2CNC(=O)NCc2ccccc2)ccc1O[C@H]1CCC[C@H](C(=O)O)C1 [Example 112, (1S,3S)-3-((6-(5-((3-benzylureido)methyl)-1-methyl-1H-1,2,3-triazol-4-yl)-2-methylpyridin-3-yl)oxy)cyclohexane-1-carboxylic acid] | 63
7 | Cc1nc(-c2nnn(C)c2CN(C)C(=O)NCc2ccccc2)ccc1O[C@H]1CCC[C@H](C(=O)O)C1 [Example 113, (1S,3S)-3-((6-(5-((3-benzyl-1-methylureido)methyl)-1-methyl-1H-1,2,3-triazol-4-yl)-2-methyl-pyridin-3-yl)oxy)cyclohexane-1-carboxylic acid] | 218
8 | Cc1nc(-c2nnn(C)c2CNC(=O)NCCC(C)C)ccc1O[C@H]1CCC[C@H](C(=O)O)C1 [Example 122, (1S,3S)-3-((6-(5-((3-isopentyl-ureido)methyl)-1-methyl-1H-1,2,3-triazol-4-yl)-2-methylpyridin-3-yl)oxy)cyclohexane-1-carboxylic acid] | 101
9 | Cc1nc(-c2nnn(C)c2CNC(=O)NCC(C)C)ccc1O[C@H]1CCC[C@H](C(=O)O)C1 [Example 127, (1S,3S)-3-((6-(5-((3-isobutylureido)methyl)-1-methyl-1H-1,2,3-triazol-4-yl)-2-methylpyridin-3-yl)oxy)cyclohexane-1-carboxylic acid] | 2270
10 | Cc1nc(-c2nnn(C)c2CNC(=O)N(C)CC(C)C)ccc1O[C@H]1CCC[C@H](C(=O)O)C1 [Example 128, (1S,3S)-3-((6-(5-((3-isobutyl-3-methylureido)methyl)-1-methyl-1H-1,2,3-triazol-4-yl)-2-methylpyridin-3-yl)oxy)cyclohexane-1-carboxylic acid] | 273
11 | Cc1nc(-c2nnn(C)c2CNC(=O)N[C@H](C)c2ccccc2)ccc1O[C@H]1CCC[C@H](C(=O)O)C1 [Example 130, (1S,3S)-3-((2-methyl-6-(1-methyl-5-((3-((R)-1-phenylethyl)ureido)methyl)-1H-1,2,3-triazol-4-yl)pyridin-3-yl)oxy)cyclohexane-1-carboxylic acid] | 275
12 | Cc1nc(-c2nnn(C)c2CNC(=O)N(C)[C@H](C)c2ccccc2)ccc1O[C@H]1CCC[C@H](C(=O)O)C1 [Example 131, (1S,3S)-3-((2-methyl-6-(1-methyl-5-((3-methyl-3-((R)-1-phenylethyl)ureido)methyl)-1H-1,2,3-triazol-4-yl)pyridin-3-yl)oxy)cyclohexane-1-carboxylic acid] | 217
13 | Cc1nc(-c2nnn(C)c2CNC(=O)N(C)C(C)(C)C)ccc1O[C@H]1CCC[C@H](C(=O)O)C1 [Example 133, (1S,3S)-3-((6-(5-((3-(tert-butyl)-3-methylureido)methyl)-1-methyl-1H-1,2,3-triazol-4-yl)-2-methylpyridin-3-yl)oxy)cyclohexane-1-carboxylic acid] | 1090
14 | Cc1nc(-c2nnn(C)c2CNC(=O)N(C)C(C)C)ccc1O[C@H]1CCC[C@H](C(=O)O)C1 [Example 134, (1S,3S)-3-((6-(5-((3-isopropyl-3-methylureido)methyl)-1-methyl-1H-1,2,3-triazol-4-yl)-2-methylpyridin-3-yl)oxy)cyclohexane-1-carboxylic acid] | 519

The remaining lines, values ahead:

Row | IC50 [nM] | Compound
15 | 595 | Cc1nc(-c2nnn(C)c2CCNC(=O)OCc2ccccc2Cl)ccc1O[C@H]1CCC[C@H](C(=O)O)C1 [Example 103, (1S,3S)-3-((6-(5-(2-((((2-chloro-benzyl)oxy)carbonyl)amino)ethyl)-1-methyl-1H-1,2,3-triazol-4-yl)-2-methylpyridin-3-yl)oxy)cyclohexane-1-carboxylic acid]
16 | 1360 | Cc1nc(-c2nnn(C)c2CCNC(=O)OCC(C)(C)C)ccc1O[C@H]1CCC[C@H](C(=O)O)C1 [Example 104, (1S,3S)-3-((2-methyl-6-(1-methyl-5-(2-(((neopentyloxy)carbonyl)amino)ethyl)-1H-1,2,3-triazol-4-yl)pyridin-3-yl)oxy)cyclohexane-1-carboxylic acid]
17 | 1830 | Cc1nc(-c2nnn(C)c2CCNC(=O)OC2CCCC2)ccc1O[C@H]1CCC[C@H](C(=O)O)C1 [Example 105, (1S,3S)-3-((6-(5-(2-(((cyclopentyl-oxy)carbonyl)amino)ethyl)-1-methyl-1H-1,2,3-triazol-4-yl)-2-methyl-pyridin-3-yl)oxy)cyclohexane-1-carboxylic acid]
18 | 217 | CCCN(C)C(=O)NCc1c(-c2ccc(O[C@H]3CCC[C@H](C(=O)O)C3)c(C)n2)nnn1C [Example 110, (1S,3S)-3-((2-methyl-6-(1-methyl-5-((3-methyl-3-propylureido)methyl)-1H-1,2,3-triazol-4-yl)pyridin-3-yl)oxy)cyclohexanecarboxylic acid]
19 | 112 | Cc1nc(-c2nnn(C)c2CNC(=O)N(C)CCC2CC2)ccc1O[C@H]1CCC[C@H](C(=O)O)C1 [Example 114, (1S,3S)-3-((6-(5-((3-(2-cyclopropyl-ethyl)-3-methylureido)methyl)-1-methyl-1H-1,2,3-triazol-4-yl)-2-methylpyridin-3-yl)oxy)cyclohexane-1-carboxylic acid]
20 | 166 | Cc1nc(-c2nnn(C)c2CN(C)C(=O)N(C)Cc2ccccc2)ccc1O[C@H]1CCC[C@H](C(=O)O)C1 [Example 115, (1S,3S)-3-((6-(5-((3-benzyl-1,3-dimethylureido)methyl)-1-methyl-1H-1,2,3-triazol-4-yl)-2-methyl-pyridin-3-yl)oxy)cyclohexane-1-carboxylic acid]
21 | 92 | Cc1nc(-c2nnn(C)c2CNC(=O)N(C)CCC(C)C)ccc1O[C@H]1CCC[C@H](C(=O)O)C1 [Example 116, (1S,3S)-3-((6-(5-((3-isopentyl-3-methyl-ureido)methyl)-1-methyl-1H-1,2,3-triazol-4-yl)-2-methylpyridin-3-yl)oxy)cyclohexane-1-carboxylic acid]
22 | 420 | Cc1nc(-c2nnn(C)c2CNC(=O)NC2CC3CCC2C3)ccc1O[C@H]1CCC[C@H](C(=O)O)C1 (stereo partly drawn) [Example 117, (1S,3S)-3-((6-(5-((3-(bicyclo [2.2.1]heptan-2-yl)ureido)methyl)-1-methyl-1H-1,2,3-triazol-4-yl)-2-methylpyridin-3-yl)oxy)cyclohexane-1-carboxylic acid]
23 | 929 | Cc1nc(-c2nnn(C)c2CNC(=O)NCC2CC(F)(F)C2)ccc1O[C@H]1CCC[C@H](C(=O)O)C1 [Example 123, (1S,3S)-3-((6-(5-((3-((3,3-difluorocyclo-butyl)methyl)ureido)methyl)-1-methyl-1H-1,2,3-triazol-4-yl)-2-methylpyridin-3-yl)oxy)cyclohexane-1-carboxylic acid]
24 | 434 | CCCCNC(=O)NCc1c(-c2ccc(O[C@H]3CCC[C@H](C(=O)O)C3)c(C)n2)nnn1C [Example 124, (1S,3S)-3-((6-(5-((3-butylureido)methyl)-1-methyl-1H-1,2,3-triazol-4-yl)-2-methylpyridin-3-yl)oxy)cyclohexane-1-carboxylic acid]
25 | 276 | Cc1nc(-c2nnn(C)c2CNC(=O)N(C)[C@@H](C)c2ccccc2)ccc1O[C@H]1CCC[C@H](C(=O)O)C1 [Example 132, (1S,3S)-3-((2-methyl-6-(1-methyl-5-((3-methyl-3-((S)-1-phenylethyl)ureido)methyl)-1H-1,2,3-triazol-4-yl)pyridin-3-yl)oxy)cyclohexane-1-carboxylic acid]
26 | 329 | Cc1nc(-c2nnn(C)c2NC(=O)NCc2ccccc2)ccc1O[C@H]1CCC[C@H](C(=O)O)C1 [Example 135, (1S,3S)-3-((6-(5-(3-benzylureido)-1-methyl-1H-1,2,3-triazol-4-yl)-2-methylpyridin-3-yl)oxy)cyclohexane-1-carboxylic acid]
27 | 103 | Cc1nc(-c2nnn(C)c2NC(=O)N[C@H](C)c2ccccc2)ccc1O[C@H]1CCC[C@H](C(=O)O)C1 [Example 136, (1S,3S)-3-((2-methyl-6-(1-methyl-5-(3-((R)-1-phenylethyl)ureido)-1H-1,2,3-triazol-4-yl)pyridin-3-yl)oxy) cyclohexane-1-carboxylic acid]
